# Literature values, collected in patent US20030018166A1 (priority 2000, published 2003).
# Like-named read-outs stand apart in the source and are kept apart here.
# Molecular target: T1, M. avium ICL (UniProt P9WKK7)
# T1 construct: The proteins were purified by the 6His-tag attached to the N terminus; fused on or other part: N-terminal 6His tag
# T1 sequence (P9WKK7 1-428): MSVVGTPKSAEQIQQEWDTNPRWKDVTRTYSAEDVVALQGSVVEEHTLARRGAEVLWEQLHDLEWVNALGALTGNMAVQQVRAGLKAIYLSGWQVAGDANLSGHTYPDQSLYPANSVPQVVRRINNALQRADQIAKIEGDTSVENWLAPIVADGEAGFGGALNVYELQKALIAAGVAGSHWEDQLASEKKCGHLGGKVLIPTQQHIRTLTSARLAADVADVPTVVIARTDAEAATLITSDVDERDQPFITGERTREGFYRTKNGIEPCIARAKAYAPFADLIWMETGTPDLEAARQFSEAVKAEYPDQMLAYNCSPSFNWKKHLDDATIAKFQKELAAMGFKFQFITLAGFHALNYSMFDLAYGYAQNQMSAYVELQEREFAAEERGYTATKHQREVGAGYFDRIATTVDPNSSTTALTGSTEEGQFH
# Settings: Schloss and Cleland, 1982, cited from earlier work
Structure (SMILES),Ki [µM],Ki (read-out: Ki) [µM]
"O=C(O)C(=O)CBr [bromopyruvate, 3-bromopyruvate]",120,
O=C(O)CC[N+](=O)[O-] [3-nitropropionate],,3
